Results taken from US9119821B2, “Use of methionine sulfoximine to treat acute liver failure and other diseases caused by an inflammatory cytokine response” (priority 2010, dated 2015).
Like-named read-outs stand apart in the source and are kept apart here.

Tests used:
peritoneal macrophages = conditions: for TNF-α in culture supernatant, average ELISA value: four hours after LPS, LPS control 527
Method: Peritoneal macrophages were isolated from the abdomens of CD-1 mice, and 2×10^4 cells were added to each well of a 6-well cell culture plate. The cells were incubated in RPMI—1640 (with 2.05 mM glutamine) with 5% fetal calf serum and 1% penicillin/streptomycin (all solutions were from Hyclone) for 4 hours. The medium was then changed to remove any non-adherent cells, and the cells were again incubated in a 5% CO2 incubator for 16 hours. In each plate, one well was a negative control (no treatment), one well was a MSO control (9 mM) and one well was a LPS control (1 μg/ml LPS). The other three wells were treated with 9 mM MSO and 1 μg/ml LPS. One well was treated with MSO for 3 hours, and LPS was then added. In another well, LPS and MSO were added at the same time. Time of LPS addition was considered time zero. Four hours after LPS addition the cell culture medium was collected and 50 μL of the medium was mixed with 50 μl of blocking buffer and used for the TNF-α ELISA assay.
Macrophages coordinate the early phases of LPS-induced inflammatory response, through the synthesis of TNF-α and other cytokines. In vitro experiments were conducted to directly test if MSO inhibits TNF-α production on LPS-stimulated macrophages obtained from mouse peritoneum. Macrophages were triggered with LPS with or without MSO, wherein the MSO was added either three hours before, one hour after, or at the same time as LPS. Four hours after LPS addition, TNF-α in the culture supernatant was quantitated by ELISA, as described in Methods.

[1] = biological target: γ-glutamylcysteine synthetase (GGCS) (Mus musculus, UniProt P97494); conditions: liver extracts from LPS/D-GalN treated mice; 50 mg/kg; data not shown
Method: (§1) Tissue and plasma were collected from male mice, which were divided into two groups. One group was injected with saline three hours prior to LPS/D-GalN injections. The second group was given MSO three hours prior to being injected with LPS/D-GalN. Control mice (t=0) were treated with MSO or saline for 3 hours and then euthanized (not exposed to LPS/D-GalN). After LPS/D-GalN injection at time zero, tissue and plasma samples were collected at one-hour time intervals from 1 to 5 hours.
To analyze enzyme activities liver homogenates were prepared from liver tissue excised and immediately homogenized in ice-cold buffer consisting of 250 mM sucrose, 10 mM Tris and 0.1 mM EGTA with protease inhibitor cocktail (Sigma #P8340). The homogenized tissue was centrifuged at 2375×g for 5 min. […]
(§2) Glutamine synthetase was assayed as described by Meister, A. Glutamine synthetase from mammalian tissues. […] The reaction with the substrates glutamine and hydroxylamine was stopped using ferric chloride stop solution (0.37 M FeCl3, 0.67 M HCl, 0.20 M TCA) and the colorimetric product formed—γ-glutamyl hydroxamate—was measured at 535 nm. The absorbance values were converted to activities by comparison to a standard curve of pure glutamyl hydroxamate (a generous gift from Arthur J. Cooper, Department of Biochemistry and Molecular Biology, New York Medical College).

[2] = i.p. injection of 50 mg/kg
glutamine synthetase = biological target: T1, glutamine synthetase (Mus musculus, UniProt P15105); test: Glutamine synthetase activity in liver extracts of treated mice; format: in vivo
T1 construct: liver homogenates were prepared from liver tissue excised and immediately homogenized; from tissue; host or cells: mouse liver homogenate supernatant
Method: as §1
To analyze enzyme activities liver homogenates were prepared from liver tissue excised and immediately homogenized in ice-cold buffer consisting of 250 mM sucrose, 10 mM Tris and 0.1 mM EGTA with protease inhibitor cocktail (Sigma #P8340). The homogenized tissue was centrifuged at 2375×g for 5 min. The tissue supernatant fraction was frozen on dry ice and stored at −80° C.
as §2

[3] = tested on: CD1 mice injected with Jo2 antibody; conditions: mouse, in vivo
Method: Animals were divided into two groups. Group one animals consisted of both male and female mice injected with LPS and D-GalN to induce hepatic failure. Survival was monitored post LPS/D-GalN administration and the time of injection was considered to be zero hour (t=0). Group two animals consisted of mice injected with MSO three hours prior to LPS and D-GalN administration. […] MSO (50 mg/kg body weight, Sigma #M5379) was also prepared in saline and administered IP. For analysis of the effect of MSO treatment on the cell death pathway activated by the Fas ligand, mice were pre-treated with MSO as described above, and at time zero were injected with Jo2 antibody ([…]).
Animals were monitored continuously post LPS/D-GalN or Jo2 administration. […] The time of death was recorded as hours after LPS/D-GalN injection. Fisher's exact test was used to determine two-tailed p values for the statistical between the treated and untreated groups.

T1 sequence (P15105 2-373 limits assumed): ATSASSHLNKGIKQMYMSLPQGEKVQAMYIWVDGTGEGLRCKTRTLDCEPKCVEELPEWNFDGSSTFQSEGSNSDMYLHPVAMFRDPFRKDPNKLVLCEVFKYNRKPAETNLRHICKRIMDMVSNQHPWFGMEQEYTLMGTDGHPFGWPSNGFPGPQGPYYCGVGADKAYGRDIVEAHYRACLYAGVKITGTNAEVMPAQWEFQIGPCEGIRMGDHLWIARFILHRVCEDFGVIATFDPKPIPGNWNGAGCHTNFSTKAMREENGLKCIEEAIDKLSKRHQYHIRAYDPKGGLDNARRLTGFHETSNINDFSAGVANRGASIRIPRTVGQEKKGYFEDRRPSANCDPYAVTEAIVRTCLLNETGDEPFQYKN
Chain of γ-glutamylcysteine synthetase (GGCS) (P97494 whole entry): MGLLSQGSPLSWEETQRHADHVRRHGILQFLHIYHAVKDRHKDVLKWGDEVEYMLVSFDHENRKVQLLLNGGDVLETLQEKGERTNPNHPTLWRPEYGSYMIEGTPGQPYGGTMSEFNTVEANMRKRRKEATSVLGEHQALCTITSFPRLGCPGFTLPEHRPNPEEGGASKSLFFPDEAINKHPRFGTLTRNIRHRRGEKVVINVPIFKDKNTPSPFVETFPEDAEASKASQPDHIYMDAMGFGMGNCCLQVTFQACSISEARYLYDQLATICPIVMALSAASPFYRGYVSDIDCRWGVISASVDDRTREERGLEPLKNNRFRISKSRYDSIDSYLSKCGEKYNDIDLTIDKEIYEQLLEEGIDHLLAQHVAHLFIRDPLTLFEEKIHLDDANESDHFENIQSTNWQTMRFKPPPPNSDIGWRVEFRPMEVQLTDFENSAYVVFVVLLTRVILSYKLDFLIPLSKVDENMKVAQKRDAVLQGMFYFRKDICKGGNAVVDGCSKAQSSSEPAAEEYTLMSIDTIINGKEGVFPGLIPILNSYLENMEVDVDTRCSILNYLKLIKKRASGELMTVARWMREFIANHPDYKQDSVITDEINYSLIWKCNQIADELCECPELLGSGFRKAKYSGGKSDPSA
Chain of γ-glutamylcysteine synthetase (GGCS) (O09172 whole entry partner): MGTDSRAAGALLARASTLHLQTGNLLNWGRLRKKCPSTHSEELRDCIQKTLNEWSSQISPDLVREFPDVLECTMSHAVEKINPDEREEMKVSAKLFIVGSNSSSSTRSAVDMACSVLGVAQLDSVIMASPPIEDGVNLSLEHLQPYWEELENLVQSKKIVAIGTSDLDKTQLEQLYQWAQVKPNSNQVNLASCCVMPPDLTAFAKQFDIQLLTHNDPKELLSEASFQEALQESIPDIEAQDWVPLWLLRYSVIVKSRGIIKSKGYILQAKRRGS

CS(=N)(=O)CC[C@H](N)C(=O)O (stereo partly drawn) [MSO, methionine sulfoximine]
TNF-α in culture supernatant, average ELISA value (peritoneal macrophages; 9 mM MSO added at the same time as LPS (1 μg/ml)): 442 pg/50 μL
TNF-α in culture supernatant, average ELISA value (peritoneal macrophages; 9 mM MSO added one hour after LPS (1 μg/ml)): 430 pg/50 μL
TNF-α in culture supernatant, average ELISA value (peritoneal macrophages; 9 mM MSO added three hours before LPS (1 μg/ml), 2 mM glutamine): 393 pg/50 μL
average reductions in TNF-α (peritoneal macrophages; 9 mM MSO, depending upon the time of addition): 16-25%
GGCS activity versus saline pre-treated mice [1]: same GGCS activities as extracts from mice pre-treated with saline
lowering of plasma glutamine concentrations [2]: about 50%
glutamine synthetase activity relative to animals pre-treated with saline (glutamine synthetase; liver extracts, 50 mg/kg IP three hours prior to LPS/D-GalN, all time points): less than 10%
inhibition of glutamine synthetase in the liver (glutamine synthetase; long term MSO treatment): 90%
effect on survival after Fas pathway induction [3]: no effect on survival
